One substance from patent publication US10674723B2, “1,8-bis(Schiff base)-p-menthane derivatives as well as preparation method and applications thereof” (INSTITUTE OF CHEMICAL INDUSTRY OF FOREST PRODUCTS, CAF, priority 2016, dated 2020) can be followed below.

The test system of this experiment is annual ryegrass. Put plainly: Pre-emergence herbicidal activity by the Petri dish seed germination method. The format is in vivo. As to conditions: 25° C., 5 days. On the procedure:
Step 2: accurately weigh 1 mmol of the 1,8-bis(Schiff base)-p-menthane derivative and dissolve it in 0.25 mL DMF, and then add a drop of Tween 80 into it; after the product is fully dissolved, the resulting solution is transferred to a 100 mL volumetric flask and is diluted with distilled water to the mark to obtain a solution having a concentration of 10 mmol/L as the mother liquor. Using the two-fold dilution method, a series of diluted sample solutions with different concentrations are prepared with the mother liquor (the concentrations of DMF and Tween 80 in the diluted solutions should be consistent with those in the mother liquor).
The annual ryegrass seeds are soaked with distilled water for 15 h. Place a piece of filter paper on the bottom of a Petri dish (φ9 cm), add 10 mL of the above sample solution having the corresponding concentration into it, respectively, and add the same amount of the mixture of water, DMF and Tween 80 into such a Petri dish as a blank control. Place 10 grains of seeds into each dish. The dishes are then placed in an incubator and cultured at 25° C. for 5 days. The experimental data are analyzed with DPS software, and the inhibition rate of the 1,8-bis(Schiff base)-p-menthane derivative on the root or stem growth of ryegrass seeds is calculated as follows:
[formula] Where: y is the inhibition rate on the root or stem growth, x2 is the root length or stem length of the control sample, and x1 is the root length or stem length of the sample.
1 mmol of the 1,8-bis(2-hydroxyphenylimine)-p-menthane was accurately weighed and dissolved in 0.25 mL DMF; a drop of Tween 80 was then added into it; after the product was fully dissolved, the resulting solution was transferred to a 100 mL volumetric flask and was diluted with distilled water to the mark to obtain a solution having a concentration of 10 mmol/L as the mother liquor. Using the two-fold dilution method, a series of diluted sample solutions with different concentrations (5 mmol/L, 2.5 mmol/L, 1.25 mmol/L, 0.625 mmol/L and 0.3125 mmol/L; the concentrations of DMF and Tween 80 in the diluted solutions should be consistent with those in the mother liquor) were prepared with the mother liquor.
The annual ryegrass seeds were soaked with distilled water for 15 h. Placed a piece of filter paper on the bottom of a Petri dish (φ 9 cm), added 10 mL of the above sample solution having the corresponding concentration into it, respectively, and added the same amount of the mixture of water, DMF and Tween 80 into such a Petri dish as a blank control. 10 grains of seeds were placed into each of the dishes. The dishes were then placed in an incubator and cultured at 25° C. for 5 days.

With “1,8-bis(2-trifluoromethylphenylimine)-p-menthane”, the “inhibition rate on the root growth of ryegrass seeds” value runs as follows: (0.3125 mmol/L solution) 79.2%; (0.625 mmol/L solution) 86.2%; (1.25 mmol/L solution) 99.7%; (2.5 mmol/L solution) 100.0%; (5 mmol/L solution) 100.0%; (10 mmol/L solution) 100.0%. The “inhibition rate on the stem growth of ryegrass seeds” value by setting is: (0.3125 mmol/L solution) 56.3%; (0.625 mmol/L solution) 56.3%; (1.25 mmol/L solution) 88.2%; (2.5 mmol/L solution) 100.0%; (5 mmol/L solution) 100.0%; (10 mmol/L solution) 100.0%.
